According to patent US9969694B2, “N-(arylalkyl)-N′-pyrazolyl-urea, thiourea, guanidine and cyanoguanidine compounds as TrkA kinase inhibitors” (Array BioPharma Inc., priority 2012, dated 2018):

What was measured:
Assay in all cases: Off-Target Kinase Profiling
Type in all cases: biochemical
Details in all cases: 10 μM; ATP near Km
ErbB4 = target: T1, ErbB4 (Homo sapiens, UniProt Q15303)
T1 construct: purchased Millipore, Inc. (KinaseProfiler service)
Outline: (§1)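 Duplicate determinations at a single 10 μM dose make up each value, expressed as POC. Assays followed the provider's per-kinase conditions, with ATP near Km.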

SRPK2 = target: T2, SRPK2 (Homo sapiens, UniProt P78362)
T2 construct: purchased Millipore, Inc. (KinaseProfiler service)
Outline: as §1

NEK3 = target: T3, NEK3 (Homo sapiens, UniProt P51956)
T3 construct: purchased Millipore, Inc. (KinaseProfiler service)
Outline: as §1

PKCtheta = target: T4, PKCtheta (Homo sapiens, UniProt Q04759)
T4 construct: purchased Millipore, Inc. (KinaseProfiler service)
Outline: as §1

Rsk4 = target: T5, Rsk4 (Homo sapiens, UniProt Q9UK32)
T5 construct: purchased Millipore, Inc. (KinaseProfiler service)
Outline: as §1

PrKX = target: T6, PrKX (Homo sapiens, UniProt P51817)
T6 construct: purchased Millipore, Inc. (KinaseProfiler service)
Outline: as §1

ERK1 = target: T7, ERK1 (Homo sapiens, UniProt P27361)
T7 construct: purchased Millipore, Inc. (KinaseProfiler service)
Outline: as §1

BLK_m = target: T8, BLK_m (Mus musculus, UniProt P16277)
T8 construct: purchased Millipore (KinaseProfiler service)
Outline: as §1

HIPK3 = target: T9, HIPK3 (Homo sapiens, UniProt Q9H422)
T9 construct: purchased Millipore, Inc. (KinaseProfiler service)
Outline: as §1

PKCepsilon = target: T10, PKCepsilon (Homo sapiens, UniProt Q02156)
T10 construct: purchased Millipore, Inc. (KinaseProfiler service)
Outline: as §1

PAK6 = target: T11, PAK6 (Homo sapiens, UniProt Q9NQU5)
T11 construct: purchased Millipore, Inc. (KinaseProfiler service)
Outline: as §1

ALK = target: T12, ALK (Homo sapiens, UniProt Q9UM73)
T12 construct: purchased Millipore (KinaseProfiler service)
Outline: as §1

Bmx = target: T13, Bmx (Homo sapiens, UniProt P51813)
T13 construct: purchased Millipore (KinaseProfiler service)
Outline: as §1

PRK2 = target: T14, PRK2 (Homo sapiens, UniProt Q16513)
T14 construct: purchased Millipore, Inc. (KinaseProfiler service)
Outline: as §1

JNK1alpha1 = target: T15, JNK1alpha1 (Homo sapiens, UniProt P45983)
T15 construct: purchased Millipore, Inc. (KinaseProfiler service)
Outline: as §1

IRAK4 = target: T16, IRAK4 (Homo sapiens, UniProt Q9NWZ3)
T16 construct: purchased Millipore, Inc. (KinaseProfiler service)
Outline: as §1

TSSK1 = target: T17, TSSK1 (Homo sapiens, UniProt Q9BXA7)
T17 construct: purchased Millipore, Inc. (KinaseProfiler service)
Outline: as §1

BTK = target: T18, BTK (Homo sapiens, UniProt Q06187)
T18 construct: purchased Millipore (KinaseProfiler service)
Outline: as §1

NEK11 = target: T19, NEK11 (Homo sapiens, UniProt Q8NG66)
T19 construct: purchased Millipore, Inc. (KinaseProfiler service)
Outline: as §1

PASK = target: T20, PASK (Homo sapiens, UniProt Q96RG2)
T20 construct: purchased Millipore, Inc. (KinaseProfiler service)
Outline: as §1

PDGFRbeta = target: T21, PDGFRbeta (Homo sapiens, UniProt P09619)
T21 construct: purchased Millipore, Inc. (KinaseProfiler service)
Outline: as §1

PDGFRalpha = target: T22, PDGFRalpha (Homo sapiens, UniProt P16234)
T22 construct: purchased Millipore, Inc. (KinaseProfiler service)
Outline: as §1

Abl-P = target: T23, Abl-P (Homo sapiens, UniProt P00519)
T23 construct: purchased Millipore (KinaseProfiler service)
Outline: as §1

MuSK = target: T24, MuSK (Homo sapiens, UniProt O15146)
T24 construct: purchased Millipore, Inc. (KinaseProfiler service)
Outline: as §1

FGFR2 = target: T25, FGFR2 (Homo sapiens, UniProt P21802)
T25 construct: purchased Millipore, Inc. (KinaseProfiler service)
Outline: as §1

TAK1 = target: T26, TAK1 (Homo sapiens, UniProt O43318)
T26 construct: purchased Millipore, Inc. (KinaseProfiler service)
Outline: as §1

EphB4 = target: T27, EphB4 (Homo sapiens, UniProt P54760)
T27 construct: purchased Millipore, Inc. (KinaseProfiler service)
Outline: as §1

CDK2/cyclinA = target: T28, CDK2/cyclinA (Homo sapiens, UniProt P24941)
T28 construct: purchased Millipore (KinaseProfiler service)
Outline: as §1

Rsk1 = target: T29, Rsk1 (Homo sapiens, UniProt Q15418)
T29 construct: purchased Millipore, Inc. (KinaseProfiler service)
Outline: as §1

TAO1 = target: T30, TAO1 (Homo sapiens, UniProt Q7L7X3)
T30 construct: purchased Millipore, Inc. (KinaseProfiler service)
Outline: as §1

CK1delta = target: T31, CK1delta (Homo sapiens, UniProt P48730)
T31 construct: purchased Millipore, Inc. (KinaseProfiler service)
Outline: as §1

p70S6K = target: T32, p70S6K (Homo sapiens, UniProt P23443)
T32 construct: purchased Millipore, Inc. (KinaseProfiler service)
Outline: as §1

Rsk2 = target: T33, Rsk2 (Homo sapiens, UniProt P51812)
T33 construct: purchased Millipore, Inc. (KinaseProfiler service)
Outline: as §1

IKKalpha = target: T34, IKKalpha (Homo sapiens, UniProt O15111)
T34 construct: purchased Millipore, Inc. (KinaseProfiler service)
Outline: as §1

EphB2 = target: T35, EphB2 (Homo sapiens, UniProt P29323)
T35 construct: purchased Millipore, Inc. (KinaseProfiler service)
Outline: as §1

Haspin = target: T36, Haspin (Homo sapiens, UniProt Q8TF76)
T36 construct: purchased Millipore, Inc. (KinaseProfiler service)
Outline: as §1

MAP4K2 = target: T37, MAP4K2 (Homo sapiens, UniProt Q12851)
T37 construct: purchased Millipore, Inc. (KinaseProfiler service)
Outline: as §1

CDK6/cyclinD3 = target: T38, CDK6/cyclinD3 (Homo sapiens, UniProt Q00534)
T38 construct: purchased Millipore, Inc. (KinaseProfiler service)
Outline: as §1

Pim-3 = target: T39, Pim-3 (Homo sapiens, UniProt Q86V86)
T39 construct: purchased Millipore, Inc. (KinaseProfiler service)
Outline: as §1

Met = target: T40, Met (Homo sapiens, UniProt P08581)
T40 construct: purchased Millipore, Inc. (KinaseProfiler service)
Outline: as §1

p38alpha = target: T41, p38alpha (Homo sapiens, UniProt Q16539)
T41 construct: purchased Millipore, Inc. (KinaseProfiler service)
Outline: as §1

T26 sequence (O43318 1-303 limits assumed): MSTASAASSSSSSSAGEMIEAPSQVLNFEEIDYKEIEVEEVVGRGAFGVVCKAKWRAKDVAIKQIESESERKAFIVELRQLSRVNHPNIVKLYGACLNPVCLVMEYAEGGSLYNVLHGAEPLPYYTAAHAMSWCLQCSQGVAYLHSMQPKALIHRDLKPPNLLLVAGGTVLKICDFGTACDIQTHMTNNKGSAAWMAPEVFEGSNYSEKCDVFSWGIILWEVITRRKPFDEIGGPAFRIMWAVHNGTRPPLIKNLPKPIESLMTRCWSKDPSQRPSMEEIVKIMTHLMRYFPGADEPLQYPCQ
T19 sequence (Q8NG66 whole entry): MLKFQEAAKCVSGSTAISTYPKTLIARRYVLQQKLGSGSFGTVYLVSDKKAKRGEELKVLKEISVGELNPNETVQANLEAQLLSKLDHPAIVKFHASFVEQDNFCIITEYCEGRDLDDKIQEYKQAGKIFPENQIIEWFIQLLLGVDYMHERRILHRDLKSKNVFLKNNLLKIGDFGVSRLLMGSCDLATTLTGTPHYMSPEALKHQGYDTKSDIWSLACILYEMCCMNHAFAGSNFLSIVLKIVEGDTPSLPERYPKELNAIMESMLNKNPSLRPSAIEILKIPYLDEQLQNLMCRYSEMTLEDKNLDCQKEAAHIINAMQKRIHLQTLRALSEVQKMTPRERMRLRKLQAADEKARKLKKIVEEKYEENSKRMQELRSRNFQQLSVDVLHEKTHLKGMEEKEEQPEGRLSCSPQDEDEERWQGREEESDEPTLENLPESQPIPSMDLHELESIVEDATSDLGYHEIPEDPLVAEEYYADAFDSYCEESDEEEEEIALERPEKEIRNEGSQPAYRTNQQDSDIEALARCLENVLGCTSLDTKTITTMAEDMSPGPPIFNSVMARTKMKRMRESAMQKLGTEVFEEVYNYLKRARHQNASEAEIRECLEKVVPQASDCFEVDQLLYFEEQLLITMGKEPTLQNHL
T41 sequence (Q16539 whole entry): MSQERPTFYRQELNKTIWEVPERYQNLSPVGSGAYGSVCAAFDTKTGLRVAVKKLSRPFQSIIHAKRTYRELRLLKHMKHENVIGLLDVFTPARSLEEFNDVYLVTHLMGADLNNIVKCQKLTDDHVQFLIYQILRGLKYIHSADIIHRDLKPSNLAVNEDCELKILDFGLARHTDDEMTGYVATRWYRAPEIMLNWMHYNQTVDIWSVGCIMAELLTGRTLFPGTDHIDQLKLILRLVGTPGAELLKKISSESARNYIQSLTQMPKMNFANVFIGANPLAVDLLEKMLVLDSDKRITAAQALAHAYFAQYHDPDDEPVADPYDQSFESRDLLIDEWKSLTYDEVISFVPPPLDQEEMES
T1 sequence (Q15303 26-1308): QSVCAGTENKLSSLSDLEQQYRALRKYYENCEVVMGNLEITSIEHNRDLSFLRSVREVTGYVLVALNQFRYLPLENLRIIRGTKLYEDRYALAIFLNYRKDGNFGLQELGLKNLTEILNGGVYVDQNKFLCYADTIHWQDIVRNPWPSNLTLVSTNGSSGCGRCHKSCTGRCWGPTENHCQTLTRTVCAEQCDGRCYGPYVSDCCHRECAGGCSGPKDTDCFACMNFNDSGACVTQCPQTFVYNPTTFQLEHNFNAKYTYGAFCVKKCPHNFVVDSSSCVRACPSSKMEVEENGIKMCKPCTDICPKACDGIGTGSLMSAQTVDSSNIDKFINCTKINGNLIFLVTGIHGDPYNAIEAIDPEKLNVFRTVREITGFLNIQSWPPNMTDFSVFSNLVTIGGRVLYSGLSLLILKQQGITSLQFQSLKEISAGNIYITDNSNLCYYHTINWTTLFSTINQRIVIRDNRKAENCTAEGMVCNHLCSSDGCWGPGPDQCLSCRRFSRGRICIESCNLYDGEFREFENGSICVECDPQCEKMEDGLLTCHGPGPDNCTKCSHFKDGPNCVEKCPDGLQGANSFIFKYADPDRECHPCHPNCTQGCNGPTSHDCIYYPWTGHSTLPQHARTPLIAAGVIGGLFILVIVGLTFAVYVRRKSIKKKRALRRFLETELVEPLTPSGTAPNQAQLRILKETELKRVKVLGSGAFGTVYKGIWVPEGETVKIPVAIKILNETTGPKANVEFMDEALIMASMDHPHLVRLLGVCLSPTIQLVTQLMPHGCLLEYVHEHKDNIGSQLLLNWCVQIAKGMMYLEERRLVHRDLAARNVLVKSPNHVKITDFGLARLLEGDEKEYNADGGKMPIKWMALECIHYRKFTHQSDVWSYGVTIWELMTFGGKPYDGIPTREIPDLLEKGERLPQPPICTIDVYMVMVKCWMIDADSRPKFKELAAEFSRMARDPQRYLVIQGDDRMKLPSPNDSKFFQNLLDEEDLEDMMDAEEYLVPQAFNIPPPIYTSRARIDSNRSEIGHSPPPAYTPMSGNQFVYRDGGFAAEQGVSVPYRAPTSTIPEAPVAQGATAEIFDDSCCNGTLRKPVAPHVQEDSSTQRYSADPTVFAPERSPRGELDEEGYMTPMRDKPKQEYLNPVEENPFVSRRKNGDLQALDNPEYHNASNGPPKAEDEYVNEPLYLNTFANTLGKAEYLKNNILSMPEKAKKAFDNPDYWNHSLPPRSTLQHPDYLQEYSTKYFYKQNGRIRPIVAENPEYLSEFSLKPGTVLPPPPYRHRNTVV
T35 sequence (P29323 19-1055): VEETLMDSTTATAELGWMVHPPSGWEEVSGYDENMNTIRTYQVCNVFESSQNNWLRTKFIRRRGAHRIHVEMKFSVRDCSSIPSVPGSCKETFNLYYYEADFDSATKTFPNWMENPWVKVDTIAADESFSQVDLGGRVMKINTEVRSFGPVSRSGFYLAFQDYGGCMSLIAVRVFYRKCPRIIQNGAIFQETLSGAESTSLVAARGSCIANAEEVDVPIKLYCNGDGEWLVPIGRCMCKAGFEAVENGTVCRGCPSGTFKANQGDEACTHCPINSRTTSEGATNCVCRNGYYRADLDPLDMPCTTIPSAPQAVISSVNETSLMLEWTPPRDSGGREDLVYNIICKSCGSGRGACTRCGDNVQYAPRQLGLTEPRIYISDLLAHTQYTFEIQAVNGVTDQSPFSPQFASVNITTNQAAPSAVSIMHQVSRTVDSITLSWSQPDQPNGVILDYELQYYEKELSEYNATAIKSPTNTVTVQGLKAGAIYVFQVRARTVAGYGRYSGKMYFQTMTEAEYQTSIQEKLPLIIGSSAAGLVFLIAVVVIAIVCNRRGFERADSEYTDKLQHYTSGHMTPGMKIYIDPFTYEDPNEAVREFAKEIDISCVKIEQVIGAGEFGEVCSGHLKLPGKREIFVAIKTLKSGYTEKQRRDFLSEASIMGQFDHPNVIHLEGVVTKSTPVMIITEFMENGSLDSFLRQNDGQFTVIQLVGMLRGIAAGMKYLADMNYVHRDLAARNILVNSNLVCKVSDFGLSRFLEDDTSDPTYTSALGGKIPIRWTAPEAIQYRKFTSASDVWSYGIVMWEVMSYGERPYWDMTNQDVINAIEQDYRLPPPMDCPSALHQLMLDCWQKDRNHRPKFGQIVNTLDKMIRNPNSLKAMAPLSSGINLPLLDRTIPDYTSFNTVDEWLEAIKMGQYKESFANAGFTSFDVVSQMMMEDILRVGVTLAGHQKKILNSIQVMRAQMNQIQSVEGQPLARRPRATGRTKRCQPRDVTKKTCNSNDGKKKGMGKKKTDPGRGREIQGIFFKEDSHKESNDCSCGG
T10 sequence (Q02156 whole entry): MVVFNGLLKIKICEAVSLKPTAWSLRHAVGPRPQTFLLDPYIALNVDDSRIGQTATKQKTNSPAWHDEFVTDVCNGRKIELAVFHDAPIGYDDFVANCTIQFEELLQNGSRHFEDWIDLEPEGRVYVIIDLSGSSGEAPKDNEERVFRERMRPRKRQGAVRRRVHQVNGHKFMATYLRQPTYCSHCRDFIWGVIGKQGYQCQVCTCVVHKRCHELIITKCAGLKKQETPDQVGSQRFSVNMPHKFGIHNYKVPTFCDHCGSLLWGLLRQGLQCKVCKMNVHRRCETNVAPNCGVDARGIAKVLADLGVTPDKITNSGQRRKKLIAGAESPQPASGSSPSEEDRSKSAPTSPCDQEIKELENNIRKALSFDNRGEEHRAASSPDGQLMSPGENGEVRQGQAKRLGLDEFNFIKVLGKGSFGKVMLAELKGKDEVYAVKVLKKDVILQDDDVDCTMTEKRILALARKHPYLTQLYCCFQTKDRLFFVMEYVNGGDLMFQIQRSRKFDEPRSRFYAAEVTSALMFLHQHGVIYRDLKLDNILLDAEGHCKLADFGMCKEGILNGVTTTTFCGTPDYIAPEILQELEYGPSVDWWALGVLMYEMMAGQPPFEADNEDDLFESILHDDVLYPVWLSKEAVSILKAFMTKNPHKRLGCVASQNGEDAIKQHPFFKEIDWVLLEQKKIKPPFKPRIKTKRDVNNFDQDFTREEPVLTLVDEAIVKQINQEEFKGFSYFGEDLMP
T3 sequence (P51956 whole entry): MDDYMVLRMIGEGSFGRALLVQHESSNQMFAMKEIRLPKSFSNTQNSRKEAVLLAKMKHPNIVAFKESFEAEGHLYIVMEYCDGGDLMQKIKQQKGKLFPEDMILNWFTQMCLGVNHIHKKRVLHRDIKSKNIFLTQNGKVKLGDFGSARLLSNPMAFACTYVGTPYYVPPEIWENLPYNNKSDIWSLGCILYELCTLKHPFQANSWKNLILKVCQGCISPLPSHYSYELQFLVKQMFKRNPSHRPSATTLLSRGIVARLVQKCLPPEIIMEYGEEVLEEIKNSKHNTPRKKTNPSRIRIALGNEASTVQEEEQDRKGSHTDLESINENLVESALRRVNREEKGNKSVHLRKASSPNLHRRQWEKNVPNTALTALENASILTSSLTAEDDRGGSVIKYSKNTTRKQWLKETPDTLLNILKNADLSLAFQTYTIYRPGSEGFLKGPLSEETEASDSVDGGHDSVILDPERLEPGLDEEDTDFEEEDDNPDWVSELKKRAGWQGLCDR

Structure (SMILES): COCc1ccc(C2CCC2)c(CNC(=O)Nc2c(C)c(-c3cnc(C)nc3)nn2-c2ccccc2)c1 [Example 10, 1-(2-cyclobutyl-5-(methoxymethyl)benzyl)-3-(4-methyl-3-(2-methylpyrimidin-5-yl)-1-phenyl-1H-pyrazol-5-yl)urea]
- Avg POC ErbB4 (ErbB4): 108.5 POC
- Avg POC SRPK2 (SRPK2): 114 POC
- Avg POC NEK3 (NEK3): 97.5 POC
- Avg POC PKCtheta (PKCtheta): 94 POC
- Avg POC Rsk4 (Rsk4): 87 POC
- Avg POC PrKX (PrKX): 73.5 POC
- Avg POC ERK1 (ERK1): 89.5 POC
- Avg POC BLK_m (BLK_m): 97.5 POC
- Avg POC HIPK3 (HIPK3): 95.5 POC
- Avg POC PKCepsilon (PKCepsilon): 83.5 POC
- Avg POC PAK6 (PAK6): 95.5 POC
- Avg POC ALK (ALK): 102.5 POC
- Avg POC Bmx (Bmx): 100 POC
- Avg POC PRK2 (PRK2): 88.5 POC
- Avg POC JNK1alpha1 (JNK1alpha1): 98 POC
- Avg POC IRAK4 (IRAK4): 122.5 POC
- Avg POC TSSK1 (TSSK1): 60 POC
- Avg POC BTK (BTK): 117.5 POC
- Avg POC NEK11 (NEK11): 102 POC
- Avg POC PASK (PASK): 70 POC
- Avg POC PDGFRbeta (PDGFRbeta): 106 POC
- Avg POC PDGFRalpha (PDGFRalpha): 102 POC
- Avg POC Abl-P (Abl-P): 97 POC
- Avg POC MuSK (MuSK): 95 POC
- Avg POC FGFR2 (FGFR2): 103.5 POC
- Avg POC TAK1 (TAK1): 86 POC
- Avg POC EphB4 (EphB4): 140.5 POC
- Avg POC CDK2/cyclinA (CDK2/cyclinA): 98.5 POC
- Avg POC Rsk1 (Rsk1): 96.5 POC
- Avg POC TAO1 (TAO1): 111 POC
- Avg POC CK1delta (CK1delta): 85.5 POC
- Avg POC p70S6K (p70S6K): 111 POC
- Avg POC Rsk2 (Rsk2): 129.5 POC
- Avg POC IKKalpha (IKKalpha): 112.5 POC
- Avg POC EphB2 (EphB2): 103 POC
- Avg POC Haspin (Haspin): 80.5 POC
- Avg POC MAP4K2 (MAP4K2): 95.5 POC
- Avg POC CDK6/cyclinD3 (CDK6/cyclinD3): 102 POC
- Avg POC Pim-3 (Pim-3): 105.5 POC
- Avg POC Met (Met): 117 POC
- Avg POC p38alpha (p38alpha): 91.5 POC

Structure (SMILES): COCc1ccc(C(F)(F)F)c(CNC(=O)Nc2c(C)c(-c3cnn(C)c3)nn2-c2ccccc2)c1 [Example 33, 1-(1′,4-dimethyl-1-phenyl-1H,1′H-[3,4′-bipyrazol]-5-yl)-3-(5-(methoxymethyl)-2-(trifluoromethyl)benzyl)urea]
- Avg POC ErbB4 (ErbB4): 130.5 POC
- Avg POC SRPK2 (SRPK2): 112 POC
- Avg POC NEK3 (NEK3): 115.5 POC
- Avg POC PKCtheta (PKCtheta): 112.5 POC
- Avg POC Rsk4 (Rsk4): 95 POC
- Avg POC PrKX (PrKX): 146.5 POC
- Avg POC ERK1 (ERK1): 95.5 POC
- Avg POC BLK_m (BLK_m): 119 POC
- Avg POC HIPK3 (HIPK3): 102 POC
- Avg POC PKCepsilon (PKCepsilon): 92 POC
- Avg POC PAK6 (PAK6): 147.5 POC
- Avg POC ALK (ALK): 116 POC
- Avg POC Bmx (Bmx): 127.5 POC
- Avg POC PRK2 (PRK2): 106 POC
- Avg POC JNK1alpha1 (JNK1alpha1): 103 POC
- Avg POC IRAK4 (IRAK4): 109.5 POC
- Avg POC TSSK1 (TSSK1): 80 POC
- Avg POC BTK (BTK): 125 POC
- Avg POC NEK11 (NEK11): 108 POC
- Avg POC PASK (PASK): 205 POC
- Avg POC PDGFRbeta (PDGFRbeta): 166.5 POC
- Avg POC PDGFRalpha (PDGFRalpha): 126.5 POC
- Avg POC Abl-P (Abl-P): 170.5 POC
- Avg POC MuSK (MuSK): 94.5 POC
- Avg POC FGFR2 (FGFR2): 109.5 POC
- Avg POC TAK1 (TAK1): 88.5 POC
- Avg POC EphB4 (EphB4): 128 POC
- Avg POC CDK2/cyclinA (CDK2/cyclinA): 103.5 POC
- Avg POC Rsk1 (Rsk1): 119.5 POC
- Avg POC TAO1 (TAO1): 118.5 POC
- Avg POC CK1delta (CK1delta): 127.5 POC
- Avg POC p70S6K (p70S6K): 377 POC
- Avg POC Rsk2 (Rsk2): 146 POC
- Avg POC IKKalpha (IKKalpha): 137.5 POC
- Avg POC EphB2 (EphB2): 112.5 POC
- Avg POC Haspin (Haspin): 109 POC
- Avg POC MAP4K2 (MAP4K2): 115.5 POC
- Avg POC CDK6/cyclinD3 (CDK6/cyclinD3): 108 POC
- Avg POC Pim-3 (Pim-3): 103 POC
- Avg POC Met (Met): 122.5 POC
- Avg POC p38alpha (p38alpha): 88.5 POC
